# Test results: patent US20240374581A1, “SALT TYPES OF TRICYCLIC TETRAHYDRO ISOQUINOLINE DERIVATIVE” (JIANGSU HENGRUI PHARMACEUTICALS CO., LTD., priority 2021, published 2024)
# Experiments:
# [1] = Hygroscopicity study (DVS); assay type: physicochemical; conditions: 25° C.
# Method: DVS refers to dynamic vapor sorption: The measurement was conducted on SMS DVS Advantage; at 25° C., the humidity was changed as follows: 50%-95%-0%-95%-50%, in steps of 10% (5% for the last step) (specific humidity ranges are shown in corresponding patterns, and those listed here were used in most cases); the criterion was dm/dt≤0.002%.
# The measurement was conducted with a Surface Measurement Systems intrinsic at 25° C., starting from 50% humidity in humidity range of 0%-95%, in steps of 10%; the criterion was dM/dT≤0.002% and TMAX of 360 min in two cycles.
# [2] = biological target: T1, CYP3A4 (Homo sapiens (Human), UniProt P08684); assay: Inhibition of site of metabolism of midazolam in human liver microsome CYP3A4; assay type: in vitro ADME; conditions: 30 min
# T1 sequence (P08684 whole entry): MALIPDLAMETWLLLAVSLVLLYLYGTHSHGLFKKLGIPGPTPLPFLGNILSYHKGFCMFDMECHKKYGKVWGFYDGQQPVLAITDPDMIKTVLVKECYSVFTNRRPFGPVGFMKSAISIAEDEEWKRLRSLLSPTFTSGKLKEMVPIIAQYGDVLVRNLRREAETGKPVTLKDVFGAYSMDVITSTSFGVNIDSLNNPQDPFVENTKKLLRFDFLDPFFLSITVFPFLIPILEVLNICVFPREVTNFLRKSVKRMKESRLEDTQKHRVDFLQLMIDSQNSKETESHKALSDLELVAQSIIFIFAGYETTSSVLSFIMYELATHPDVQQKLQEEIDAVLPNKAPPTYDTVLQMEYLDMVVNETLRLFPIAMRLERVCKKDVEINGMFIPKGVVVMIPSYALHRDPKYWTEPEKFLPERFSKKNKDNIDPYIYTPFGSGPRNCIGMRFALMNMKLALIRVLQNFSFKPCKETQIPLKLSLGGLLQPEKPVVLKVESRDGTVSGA
# Method: (§1) • 1. Phosphate buffer (20×PBS, purchased from Sangon); • 2. NADPH (ACROS, A2646-71-1); • 3. Human liver microsome (Corning Gentest, Cat No. 452161, Lot No. 9050002, Donor, 36); • 4. ABI QTrap 4000 LC-MS System (AB Sciex); • 5. ZORBAX Extend-C18, 3×50 mm, 3.5 m (Agilent, USA); • 6. CYP probe substrate (midazolam, TRC, M343000/3 μM) and positive control inhibitor (ketoconazole, SIGMA, Cat No. K1003-100MG).
# A 100 mM PBS buffer was prepared. A 0.25 mg/mL microsome solution, a 7.5 mM MgCl2 and a 5 mM NADPH solution were prepared using the buffer. A 30 mM stock solution was diluted with DMSO to obtain 30 mM, 10 mM, 3 mM, 1 mM, 0.3 mM, 0.03 mM, 0.003 mM and 0 mM serial solutions I, which were further diluted 200-fold with phosphate buffer (PBS) to obtain serial test solutions II (150, 50, 15, 5, 1.5, 0.15, 0.015 and 0 μM). A midazolam working solution was diluted with PBS to 15 μM. 40 μL of a 0.25 mg/mL microsome solution prepared in 7.5 mM MgCl2 and 20 μL of each of the […] midazolam working solution and the compound working solutions (150, 50, 15, 5, 1.5, 0.15, 0.015 and 0 μM) were measured out and well mixed. Ketoconazole at the same concentration was used in place of the compound as a positive control group. […]
# The IC50 value of the drug for the site of metabolism of midazolam in CYP3A4 was calculated by Graphpad Prism and is shown in Table 5.
# [3] = biological target: T1, CYP3A4; assay: Time-dependent inhibition of site of metabolism of midazolam in human liver microsome CYP3A4; assay type: in vitro ADME
# Method: as §1, with “(verapamil, Adamas Reagent Co., Ltd,” for “(ketoconazole, SIGMA,”, “25904A).” for “K1003-100MG).”
# A 100 mM PBS buffer was prepared. A 0.25 mg/mL microsome solution, a 7.5 mM MgCl2 and a 5 mM NADPH solution were prepared using the buffer. A 30 mM stock solution was diluted with DMSO to obtain 30 mM, 10 mM, 3 mM, 1 mM, 0.3 mM, 0.1 mM, 0.03 mM and 0 mM serial solutions I, which were further diluted 200-fold with phosphate buffer (PBS) to obtain serial test solutions II (150, 50, 15, 5, 1.5, 0.5, 0.15 and 0 μM). A midazolam working solution was diluted with PBS to 15 μM.
# The serial test solutions prepared above were well mixed by shaking and aliquoted in 20 μL portions into corresponding reaction plates (+NADPH, T0 and -NADPH groups were set). Three parallel tests were set. 40 μL of the liver microsome working solution was added to each 96-well plate. 20 μL of a corresponding substrate solution was added to the TO plate. 20 μL of NADPH was added to the TO plate and +NADPH group. A timer was started, and the plates were incubated in a water bath at 37° C. After 30 min of incubation, the TO plate was taken out, and the reaction was terminated with 250 μL of an internal standard-containing ACN solution. The +NADPH group was supplemented with 20 μL of the corresponding substrate solution, and the −NADPH group was supplemented with 20 μL of the corresponding substrate solution and […]. A timer was started, and the plates were incubated in a water bath at 37° C. After 30 min of incubation, the plates were taken out, and the reactions were terminated with 250 μL of an internal standard-containing ACN solution. […]
# The IC50 value of the drug for the site of metabolism of midazolam in CYP3A4 was calculated by Graphpad Prism and is shown in Table 7.
smiles,measurement,setting,value
"[2H]C1([2H])Oc2cc3c(cc2O1)[C@@H](c1ccc(NC2CN(CCCF)C2)cn1)N(CC(F)(F)CO)[C@H](C)C3 [Compound 1, 2,2-Difluoro-3-((5S,7R)-5-(5-((1-(3-fluoropropyl)azetidin-3-yl)amino)pyridin-2-yl)-7-methyl-7,8-dihydro-[1,3]dioxolo[4,5-g]isoquinolin-6(5H)-yl-2,2-d2)propan-1-ol]",Hygroscopicity grade,[1]; 0% RH-80.0% RH,hygroscopic
same,Crystal form after DVS,[1],Did not change
same,Hygroscopicity 0% RH-80.0% RH,[1]; DVS,4.6%
same,Hygroscopicity 0.0% RH-95.0% RH,[1]; DVS,6.7%
same,IC50,[2],15.4 µM
same,IC50 shift at 30 min,"[3]; human, microsomes",0.7
same,IC50,[3]; pre-incubation with NADPH 30 min,13.1 µM
same,IC50,[3]; pre-incubation without NADPH,19.6 µM
